In ChEMBL document CHEMBL3991601, “The target landscape of clinical kinase drugs” (Science, 2017):
Calls of active or inactive are those of the source. For most assays here, no stated cut-off is given here; in the data, actives have a measured Kd and inactives only a lower limit.

Legend:
Activin receptor type-1B = target: T1, Activin receptor type-1B (Homo sapiens, UniProt P36896)
T1 sequence (P36896 whole entry): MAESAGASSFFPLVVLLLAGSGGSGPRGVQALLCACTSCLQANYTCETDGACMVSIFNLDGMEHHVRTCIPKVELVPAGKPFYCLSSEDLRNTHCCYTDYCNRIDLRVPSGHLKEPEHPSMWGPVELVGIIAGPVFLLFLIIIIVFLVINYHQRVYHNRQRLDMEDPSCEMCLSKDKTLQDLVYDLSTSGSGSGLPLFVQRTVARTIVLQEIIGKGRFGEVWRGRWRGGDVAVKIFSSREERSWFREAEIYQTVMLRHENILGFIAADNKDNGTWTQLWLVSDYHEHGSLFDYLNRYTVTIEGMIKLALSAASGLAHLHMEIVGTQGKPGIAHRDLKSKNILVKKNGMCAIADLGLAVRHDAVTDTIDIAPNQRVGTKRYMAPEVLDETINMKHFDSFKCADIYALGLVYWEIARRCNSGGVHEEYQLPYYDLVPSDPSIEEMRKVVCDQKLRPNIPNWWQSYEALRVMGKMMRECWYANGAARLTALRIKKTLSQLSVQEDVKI

[1] = target: Adenylate kinase 2, mitochondrial (Homo sapiens, UniProt P54819)
[2] = target: Cyclin-dependent kinase 13 (Homo sapiens, UniProt Q14004)
Cyclin-dependent kinase 13, sequence (Q14004 whole entry): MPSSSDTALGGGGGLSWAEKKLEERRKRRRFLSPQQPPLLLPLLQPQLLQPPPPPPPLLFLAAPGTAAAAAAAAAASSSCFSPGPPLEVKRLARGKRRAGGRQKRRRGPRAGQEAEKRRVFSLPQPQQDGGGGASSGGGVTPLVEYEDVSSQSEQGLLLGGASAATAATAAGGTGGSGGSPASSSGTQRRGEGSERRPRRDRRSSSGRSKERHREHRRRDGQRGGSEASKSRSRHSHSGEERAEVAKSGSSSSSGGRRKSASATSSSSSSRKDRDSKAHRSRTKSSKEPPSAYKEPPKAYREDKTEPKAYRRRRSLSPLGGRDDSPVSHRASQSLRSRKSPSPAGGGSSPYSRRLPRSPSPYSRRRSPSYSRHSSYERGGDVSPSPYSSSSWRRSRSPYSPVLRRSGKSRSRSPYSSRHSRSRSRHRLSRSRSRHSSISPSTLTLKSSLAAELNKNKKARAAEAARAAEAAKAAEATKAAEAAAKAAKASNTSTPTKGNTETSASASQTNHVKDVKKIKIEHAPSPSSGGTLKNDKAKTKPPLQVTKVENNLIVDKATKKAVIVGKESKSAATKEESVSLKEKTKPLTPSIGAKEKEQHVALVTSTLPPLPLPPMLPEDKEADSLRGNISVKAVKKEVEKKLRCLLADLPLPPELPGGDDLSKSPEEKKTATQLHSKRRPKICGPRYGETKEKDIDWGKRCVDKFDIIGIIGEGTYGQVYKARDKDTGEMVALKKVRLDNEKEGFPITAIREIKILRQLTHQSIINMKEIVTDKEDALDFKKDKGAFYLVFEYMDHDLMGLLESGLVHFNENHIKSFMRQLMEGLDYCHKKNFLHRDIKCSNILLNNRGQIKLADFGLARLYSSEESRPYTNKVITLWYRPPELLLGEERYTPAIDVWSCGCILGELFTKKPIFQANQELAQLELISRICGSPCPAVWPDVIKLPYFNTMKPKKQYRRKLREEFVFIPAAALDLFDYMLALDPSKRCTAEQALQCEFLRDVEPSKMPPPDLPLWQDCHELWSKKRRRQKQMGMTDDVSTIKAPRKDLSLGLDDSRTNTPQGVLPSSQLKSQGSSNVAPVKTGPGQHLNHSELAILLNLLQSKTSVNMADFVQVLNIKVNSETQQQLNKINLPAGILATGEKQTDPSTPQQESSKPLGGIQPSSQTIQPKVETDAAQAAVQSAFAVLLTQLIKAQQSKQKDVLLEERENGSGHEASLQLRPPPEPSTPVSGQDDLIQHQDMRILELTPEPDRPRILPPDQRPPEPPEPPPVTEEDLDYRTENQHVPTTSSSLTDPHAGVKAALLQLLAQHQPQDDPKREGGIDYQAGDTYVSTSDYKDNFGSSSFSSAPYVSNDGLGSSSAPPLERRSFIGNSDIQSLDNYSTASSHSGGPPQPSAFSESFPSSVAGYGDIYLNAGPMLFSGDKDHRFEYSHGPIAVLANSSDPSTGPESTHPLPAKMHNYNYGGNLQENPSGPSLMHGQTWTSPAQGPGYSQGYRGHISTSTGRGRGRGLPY

[3] = target: T2, Mitogen-activated protein kinase kinase kinase 2 (Homo sapiens, UniProt Q9Y2U5)
T2 sequence (Q9Y2U5 whole entry): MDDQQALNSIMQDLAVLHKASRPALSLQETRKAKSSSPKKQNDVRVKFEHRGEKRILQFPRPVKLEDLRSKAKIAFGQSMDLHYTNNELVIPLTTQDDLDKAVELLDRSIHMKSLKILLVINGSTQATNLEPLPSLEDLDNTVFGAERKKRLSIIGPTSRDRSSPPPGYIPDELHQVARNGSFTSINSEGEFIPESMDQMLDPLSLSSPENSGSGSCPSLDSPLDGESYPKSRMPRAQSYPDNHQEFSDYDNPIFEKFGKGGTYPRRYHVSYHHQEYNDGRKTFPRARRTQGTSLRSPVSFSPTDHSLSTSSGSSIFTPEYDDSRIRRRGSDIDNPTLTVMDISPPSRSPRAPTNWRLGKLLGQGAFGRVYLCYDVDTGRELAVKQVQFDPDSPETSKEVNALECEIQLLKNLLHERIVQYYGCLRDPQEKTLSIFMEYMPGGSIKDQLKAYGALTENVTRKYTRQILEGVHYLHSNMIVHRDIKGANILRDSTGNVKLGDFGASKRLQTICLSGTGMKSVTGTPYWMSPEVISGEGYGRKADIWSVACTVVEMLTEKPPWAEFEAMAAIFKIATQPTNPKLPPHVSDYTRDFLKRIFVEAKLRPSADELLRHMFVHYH

[4] = target: T3, Serine/threonine-protein kinase Nek1 (Homo sapiens, UniProt Q96PY6)
T3 sequence (Q96PY6 whole entry): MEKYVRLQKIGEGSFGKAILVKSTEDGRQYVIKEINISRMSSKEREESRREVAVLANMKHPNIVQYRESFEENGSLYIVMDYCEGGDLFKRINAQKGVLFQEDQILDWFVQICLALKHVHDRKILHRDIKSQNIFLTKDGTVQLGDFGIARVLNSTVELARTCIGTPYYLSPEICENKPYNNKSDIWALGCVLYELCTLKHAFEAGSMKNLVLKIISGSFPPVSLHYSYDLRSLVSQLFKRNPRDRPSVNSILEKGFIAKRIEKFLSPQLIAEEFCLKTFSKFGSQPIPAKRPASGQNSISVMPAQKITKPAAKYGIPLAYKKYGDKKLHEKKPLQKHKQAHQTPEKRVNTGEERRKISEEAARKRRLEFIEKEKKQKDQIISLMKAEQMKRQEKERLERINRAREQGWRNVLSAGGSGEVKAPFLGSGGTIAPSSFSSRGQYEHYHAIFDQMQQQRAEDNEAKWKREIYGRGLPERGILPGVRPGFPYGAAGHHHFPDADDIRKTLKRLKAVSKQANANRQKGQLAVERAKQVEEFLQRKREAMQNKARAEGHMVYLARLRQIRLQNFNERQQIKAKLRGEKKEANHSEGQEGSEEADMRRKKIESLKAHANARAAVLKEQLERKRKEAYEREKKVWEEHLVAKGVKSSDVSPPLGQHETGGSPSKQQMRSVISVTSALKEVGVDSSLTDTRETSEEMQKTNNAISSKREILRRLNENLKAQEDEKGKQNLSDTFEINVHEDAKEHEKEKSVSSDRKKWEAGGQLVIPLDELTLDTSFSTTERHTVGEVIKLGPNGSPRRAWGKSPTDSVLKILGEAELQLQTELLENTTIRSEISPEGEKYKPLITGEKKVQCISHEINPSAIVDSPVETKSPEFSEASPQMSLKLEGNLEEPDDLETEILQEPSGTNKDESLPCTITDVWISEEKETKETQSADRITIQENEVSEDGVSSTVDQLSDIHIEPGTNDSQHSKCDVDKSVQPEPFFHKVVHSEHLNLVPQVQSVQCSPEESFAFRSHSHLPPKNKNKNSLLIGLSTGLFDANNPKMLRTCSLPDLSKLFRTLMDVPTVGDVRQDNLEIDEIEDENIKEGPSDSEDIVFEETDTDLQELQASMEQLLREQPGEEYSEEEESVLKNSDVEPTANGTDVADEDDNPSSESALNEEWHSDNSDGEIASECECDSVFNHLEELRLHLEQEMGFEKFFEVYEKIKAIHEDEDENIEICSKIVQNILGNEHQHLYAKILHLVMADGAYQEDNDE

[5] = target: T4, Uncharacterized protein FLJ45252 (Homo sapiens, UniProt Q6ZSR9); settings: read-out: Kd apparent; k-562, colo 205, sk-n-be(2) and mv-4-11
T4 sequence (Q6ZSR9 whole entry): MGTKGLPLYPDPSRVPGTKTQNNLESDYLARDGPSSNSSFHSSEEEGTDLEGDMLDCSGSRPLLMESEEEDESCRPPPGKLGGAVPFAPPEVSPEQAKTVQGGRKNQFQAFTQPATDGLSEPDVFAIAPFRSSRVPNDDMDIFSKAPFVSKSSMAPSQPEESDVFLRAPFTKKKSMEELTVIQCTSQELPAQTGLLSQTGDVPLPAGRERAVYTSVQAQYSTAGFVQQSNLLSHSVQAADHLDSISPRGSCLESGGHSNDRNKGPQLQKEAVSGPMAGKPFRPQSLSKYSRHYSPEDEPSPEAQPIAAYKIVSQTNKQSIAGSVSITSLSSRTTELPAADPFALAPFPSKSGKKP

SMILES	Kd (Activin receptor type-1B)	Kd [1]	Kd [2]	Kd [3]	Kd [4]	Kd [5]
COc1cc2nccc(Oc3ccc(NC(=O)C4(C(=O)Nc5ccc(F)cc5)CC4)cc3)c2cc1OC [CABOZANTINIB]	> 30 µM (inactive)	> 30 µM (inactive)	> 30 µM (inactive)	> 30 µM (inactive)	> 30 µM (inactive)	> 30 µM (inactive)
O=C(Nc1ccc(OC(F)(F)F)cc1)c1sccc1NCc1ccnc2ccccc12 [OSI-930]	> 30 µM (inactive)	> 30 µM (inactive)	> 30 µM (inactive)	> 30 µM (inactive)	> 30 µM (inactive)	> 30 µM (inactive)
Cc1cc(Nc2nc(N[C@@H](C)c3ncc(F)cn3)ncc2Cl)n[nH]1 [AZD-1480]	> 30 µM (inactive)	> 30 µM (inactive)	> 30 µM (inactive)	> 30 µM (inactive)	> 30 µM (inactive)	> 30 µM (inactive)
COc1cccc(Nc2ncnn3ccc(CN4CC[C@@H](N)[C@H](O)C4)c23)c1 [BMS-690514]	> 30 µM (inactive)	> 30 µM (inactive)	> 30 µM (inactive)	1.05 µM (active)	> 30 µM (inactive)	
COc1cc2ncnc3c2cc1OCCCCCN(C)Cc1ccc(Br)cc1N3 [JNJ-26483327]	> 30 µM (inactive)	> 30 µM (inactive)	> 30 µM (inactive)	> 30 µM (inactive)	> 30 µM (inactive)	> 30 µM (inactive)
CCc1cc2c(cc1N1CCC(N3CCOCC3)CC1)C(C)(C)c1[nH]c3cc(C#N)ccc3c1C2=O [ALECTINIB]	> 30 µM (inactive)	> 30 µM (inactive)	> 30 µM (inactive)	> 30 µM (inactive)	> 30 µM (inactive)	> 30 µM (inactive)
CN(c1ncccc1CNc1nc(Nc2ccc3c(c2)CC(=O)N3)ncc1C(F)(F)F)S(C)(=O)=O [PF-00562271]	> 30 µM (inactive)	> 30 µM (inactive)	4.5 µM (active)	> 30 µM (inactive)	> 30 µM (inactive)	> 30 µM (inactive)
CNC(=O)c1cccc(-c2ccc3c(N4CCOC[C@@H]4C)nc(N4CCOC[C@@H]4C)nc3n2)c1 [VISTUSERTIB]	> 30 µM (inactive)	> 30 µM (inactive)	> 30 µM (inactive)	> 30 µM (inactive)	> 30 µM (inactive)	> 30 µM (inactive)
C=CCn1c(=O)c2cnc(Nc3ccc(N4CCN(C)CC4)cc3)nc2n1-c1cccc(C(C)(C)O)n1 [ADAVOSERTIB]	> 30 µM (inactive)	> 30 µM (inactive)	> 30 µM (inactive)	> 30 µM (inactive)	> 30 µM (inactive)	> 30 µM (inactive)
CNC(=O)c1cc(COc2nnc(Nc3ccc(Cl)cc3)c3ccoc23)ccn1 [TELATINIB]	> 30 µM (inactive)	> 30 µM (inactive)	> 30 µM (inactive)	> 30 µM (inactive)	> 30 µM (inactive)	> 30 µM (inactive)
COc1cc2c(Oc3ccc4[nH]c(C)cc4c3F)ncnc2cc1OCCCN1CCCC1 [CEDIRANIB]		> 30 µM (inactive)				
Cn1c(=O)c(F)c(Nc2ccc(I)cc2F)c2c(=O)n(C[C@@H](O)CO)cnc21 [TAK-733]	> 30 µM (inactive)	> 30 µM (inactive)	> 30 µM (inactive)	> 30 µM (inactive)	> 30 µM (inactive)	> 30 µM (inactive)
N#CCNC(=O)c1ccc(-c2ccnc(Nc3ccc(N4CCOCC4)cc3)n2)cc1 [MOMELOTINIB]	> 30 µM (inactive)	> 30 µM (inactive)	> 30 µM (inactive)	> 30 µM (inactive)	> 30 µM (inactive)	
CC1(C)CNc2cc(NC(=O)c3cccnc3NCc3ccncc3)ccc21 [MOTESANIB]		> 30 µM (inactive)				> 30 µM (inactive)
C=CCN(/C=C1/C(=O)O[C@H](COC)[C@@]2(C)C1=C(O)C(=O)C1=C2[C@H](OC(C)=O)C[C@]2(C)C(=O)CC[C@@H]12)CC=C [SONOLISIB]	> 30 µM (inactive)		> 30 µM (inactive)	> 30 µM (inactive)	> 30 µM (inactive)	> 30 µM (inactive)
CCOc1ccn(-c2ccc(F)cc2)c(=O)c1C(=O)Nc1ccc(Oc2ccnc(N)c2Cl)c(F)c1 [BMS-777607]	> 30 µM (inactive)	> 30 µM (inactive)	> 30 µM (inactive)	> 30 µM (inactive)	> 30 µM (inactive)	
CN(C)C/C=C/C(=O)Nc1cc2c(Nc3ccc(F)c(Cl)c3)ncnc2cc1O[C@H]1CCOC1 [AFATINIB]		> 30 µM (inactive)				> 30 µM (inactive)
Cn1cnc2c(F)c(Nc3ccc(Br)cc3Cl)c(C(=O)NOCCO)cc21 [SELUMETINIB]		> 30 µM (inactive)				0.807 µM (active)
C=CC(=O)Nc1cc(Nc2nccc(-c3cn(C)c4ccccc34)n2)c(OC)cc1N(C)CCN(C)C [OSIMERTINIB]	> 30 µM (inactive)	> 30 µM (inactive)	> 30 µM (inactive)	> 30 µM (inactive)	> 30 µM (inactive)	
FC(F)(F)c1ccc(CNc2ccc(Cc3c[nH]c4ncc(Cl)cc34)cn2)cn1 [PEXIDARTINIB]	> 30 µM (inactive)	> 30 µM (inactive)	> 30 µM (inactive)	> 30 µM (inactive)	> 30 µM (inactive)	
COc1cc2c(N3CCN(C(=O)Nc4ccc(OC(C)C)cc4)CC3)ncnc2cc1OCCCN1CCCCC1 [TANDUTINIB]		> 30 µM (inactive)				> 30 µM (inactive)
O=S(=O)(c1cccc2cnccc12)N1CCCNCC1 [FASUDIL]	> 30 µM (inactive)	> 30 µM (inactive)		> 30 µM (inactive)	> 30 µM (inactive)	> 30 µM (inactive)
C[C@@]1(C(=O)Nc2ccc(F)nc2)CCCN1c1nc(Nc2cc(C3CC3)n[nH]2)c2cccn2n1 [BMS-754807]		> 30 µM (inactive)				> 30 µM (inactive)
